Data set [1] has as its system Patients. As to the kind of experiment: MultiVitamins and Probucol (MVP) randomized clinical trial, angiographic and clinical endpoints. It counts as in vivo, human. From the text: It was not possible to determine with angiography alone whether probucol acted via inhibition of tissue hyperplasia or improvement in vascular remodeling. […] In addition, the invention enables the skilled practitioner to use probucol in conjunction with other percutaneous coronary interventions such as stenting if it is deemed appropriate.
The present invention concerns the IVUS substudy from the MVP restenosis trial. MVP was a double-blind placebo-controlled randomized clinical trial with four study groups. The protocol was approved by the Montreal Heart Institute institutional review board. The MVP study design, inclusion and exclusion criteria have been previously described (N Engl J Med 1997; 365-372). Briefly, patients referred for elective coronary angioplasty were evaluated at least 30 days prior to their scheduled procedure. Eligible patients were asked to provide written informed consent. Patients were eligible if they were scheduled to undergo standard balloon angioplasty on at least one native coronary artery and had at least one de novo target lesion with luminal narrowing of fifty percent or more by caliper measurements.
Beginning thirty days prior to scheduled angioplasty, patients were randomly assigned to receive either probucol alone, multivitamins alone, the combination of probucol and multivitamins, or placebo. Probucol 500 mg or matched placebo was administered twice daily. The multivitamin complex, consisting of vitamin E 700 IU, vitamin C 500 mg and beta-carotene 30,000 IU, or matched placebo was also administered in one tablet twice daily. All patients received an extra dose of probucol 1000 mg and/or vitamin E 2000 IU and/or matched placebos twelve hours before angioplasty, according to randomization assignment. […] All patients received aspirin 325 mg daily started at least thirty days before procedure and continued for the study period. Balloon angioplasty was performed according to standard techniques. Intracoronary nitroglycerin (0.3 mg) was given for each target artery for both pre- and post-dilatation angiography and at follow-up. The sequence of contrast injections with the exact degree of angulation was recorded and used for every angiogram. Coronary arteriograms (pre-, post-procedure, and final follow-up) were analyzed together using the Coronary Measurement System (CMS), as previously reported. Patient follow-up included clinical evaluation, exercise treadmill testing, blood chemistry, pill count and drug level measurements, and dietary assessment and intervention. Patients were readmitted for follow-up coronary angiography at five to seven months. […]

In data set [2] the test system is Patients. As to the kind of experiment: IVUS substudy of the MVP restenosis trial. Type of data set: in vivo, human. The source says:
Serial intravascular ultrasound (IVUS) examinations have been performed in a consecutive series of patients involved in the MVP trial. By providing tomographic views of coronary arteries with high resolution, IVUS allows quantitative assessment of changes in arterial lumen and wall dimensions. We were therefore able in this study to determine the pathophysiology of coronary restenosis after balloon angioplasty in patients systematically undergoing follow-up IVUS examination and determine the effect of probucol on tissue hyperplasia and vascular remodeling after coronary angioplasty. The present invention concerns the IVUS substudy from the MVP restenosis trial. MVP was a double-blind placebo-controlled randomized clinical trial with four study groups. The protocol was approved by the Montreal Heart Institute institutional review board. The MVP study design, inclusion and exclusion criteria have been previously described (N Engl J Med 1997; 365-372). Briefly, patients referred for elective coronary angioplasty were evaluated at least 30 days prior to their scheduled procedure. Eligible patients were asked to provide written informed consent. […] The sequence of contrast injections with the exact degree of angulation was recorded and used for every angiogram. Coronary arteriograms (pre-, post-procedure, and final follow-up) were analyzed together using the Coronary Measurement System (CMS), as previously reported. […] Patients were readmitted for follow-up coronary angiography at five to seven months. […] IVUS imaging was monitored by an experienced cardiologist, but the angioplasty operator was blinded to ultrasound results to avoid altering standard balloon angioplasty practice. […] One angiographic view was recorded on videotape before beginning pullback of the IVUS catheter. […] Simultaneous high-resolution fluoroscopic images were recorded on the IVUS imaging screen during pullbacks to constantly know the location of the IVUS transducer. […]

A further data set deals with LDL. The experiment in a line: ex vivo copper-induced LDL peroxidation, monitoring of diene conjugates (lag phase). Also noted: species or system human. To be noted: treatment for one month; preliminary results. The source says:
Dietary intervention and smoking habits were similar in all groups. Probucol may simply be a more powerful antioxidant than the combination of vitamins. To this regard, preliminary results from the continuous spectrophotometric monitoring of diene conjugates in LDL after the addition of copper ions to the isolated lipoprotein ex vivo (Free Radic Res Commun 1989; 6:67-75) of MVP patients are noteworthy.

Data set [3] in a line: drug concentration in liquid formulations (liquid chromatography / HPLC assay). Type of data set: physicochemical. To be noted: 4 mg/ml PEG 200 formulation. The source says: In accordance with exemplary embodiments of the present invention, a series of liquid formulations were developed for the local or regional delivery of water insoluble compounds such as sirolimus and its analogs, including CCl-779, ABT-578 and everolimus, through weeping balloons and catheter injection needles. […] These liquid formulations increase the apparent solubility of the pharmacologically active but water insoluble compounds by two to four orders of magnitude as compared to the solubility limits of the compounds in water. These liquid formulations rely on the use of a very small amount of organic solvents such as Ethanol (typically less than two percent) and a larger amount of safe amphiphilic (of or relating to a molecule having a polar, water soluble group attached to a non-polar, water insoluble […]) excipients such as polyethylene glycol (PEG 200, PEG 400) and vitamin E TPGS to enhance the solubility of the compounds. These liquid formulations of highly water insoluble compounds are stable and readily flowable at room temperature. Certain excipients, such as Vitamin E TPGS and BHT may be utilized to enhance the storage stability of sirolimus compounds through their anti-oxidation properties. […]

Regarding `CC(C)(Sc1cc(C(C)(C)C)c(O)c(C(C)(C)C)c1)Sc1cc(C(C)(C)C)c(O)c(C(C)(C)C)c1` [Probucol Alone, 4,4′-([1-methylethylidene)bis(thio)]bis-[2,6-bis(1,1-dimethylethyl)phenol]], the “patients in whom restenosis still occurred” value in the data set with Patients [1] (probucol alone) was “over twenty”. In addition, the “reduction in restenosis rate per segment compared to placebo” value in the data set on Patients [1] (probucol given alone) is “forty-seven”. Also, the “reduction in the need for repeat angioplasty compared to placebo” value in the data set with Patients [1] (probucol given alone, at 6 month) is on record as “fifty-eight”. For the same compound, the “reduction in angiographic lumen loss compared to placebo” value in the data set on Patients [1] (probucol given alone, thirty days before and six months after angioplasty) is “sixty-eight”. The “Lumen area (mm^2), Follow-up Post PTCA (change)” value is −0.15 ± 1.70 mm^2 in the data set on Patients [2] (efficacy analysis in compliant patients) and −0.15 ± 1.70 mm^2 with Patients [2] (per segment analysis, Placebo −1.21 ± 1.88). The “increase in vessel enlargement” value in the data set with Patients [2] (probucol only versus placebo (EEM 1.74 versus 0.29 mm^2)) is on record as “seven hundred-thirty”. The “protection against LDL oxidation (lag phase for LDL peroxidation)” value with LDL was “significantly greater protection against LDL oxidation than vitamins alone or the combination of probucol and vitamins”.
`CO[C@H]1C[C@@H]2CC[C@@H](C)[C@@](O)(O2)C(=O)C(=O)N2CCCC[C@H]2C(=O)O[C@H]([C@H](C)C[C@@H]2CC[C@@H](O)[C@H](OC)C2)CC(=O)[C@H](C)/C=C(\C)[C@@H](O)[C@@H](OC)C(=O)[C@H](C)C[C@H](C)/C=C/C=C/C=C/1C` [rapamycin]: the “concentration relative to the solubility of sirolimus in water” value in data set [3] is given as “four hundred to about one thousand”.

The values are drawn from patent publication US20090074831A1, “LOCAL […] […] OF mTOR INHIBITORS IN COMBINATION WITH PEROXISOME PROLIFERATORS-ACTIVATED RECEPTOR STIMULATORS” (priority 2007, published 2009).
